Some test systems named below: A498; A549; BT-549; DU-145; EKVX; HOP-62; HOP-92; Hs-578T; KM12; LOX IMVI; MCF7; MDA-MB-435; NCI-H23; OVCAR-4; RXF 393; SW-620; UACC-257; HL-60; K562; T47D.
Holding throughout (assay): NCI tumour cell line growth inhibition, 48 h

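Values below derive from 48-hour exposures of cells grown in 96-well plates, with endpoints linearly interpolated between the two concentrations bracketing the appropriate inhibition level. The concentration for 50% growth inhibition is given as GI50.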 The source made the active and inactive calls. Cut-off read from the data, not from the text of the source: active = GI50 up to about 1.1 µM and inactive = higher.

The values that follow come from ChEMBL document CHEMBL1201862, “PubChem BioAssay data set” (2004).

Consider `COc1cc(/C=C/C(C)=O)ccc1OP(=O)(O)O`, for which the GI50 in the experiment with A498, with A549, with BT-549, in the experiment with DU-145, with EKVX and in the experiment on HOP-62 was > 100 µM (inactive) throughout. Moreover, the GI50 in the experiment on HOP-92, in the experiment on Hs-578T, with KM12, in the experiment with LOX IMVI, with MCF7 and with MDA-MB-435 was > 100 µM (inactive) each time. The GI50 in the experiment on NCI-H23, in the experiment with OVCAR-4, with RXF 393, in the experiment on SW-620 and in the experiment on UACC-257 was > 100 µM (inactive) each time.

On to `Cc1c(C(=O)O)n2c(S)nnc2c2ccccc12`, for which the GI50 with A498, with A549, in the experiment on DU-145, in the experiment with EKVX, with HL-60 and with HOP-62 was > 100 µM (inactive) each time. The GI50 in the experiment on HOP-92, in the experiment on Hs-578T, in the experiment on K562, with KM12, with LOX IMVI and with MCF7 was > 100 µM (inactive) each time. The GI50 in the experiment on MDA-MB-435, in the experiment with NCI-H23, in the experiment with OVCAR-4, with RXF 393, in the experiment on SW-620 and in the experiment with T47D was > 100 µM (inactive) in each case. The GI50 with UACC-257 is > 100 µM (inactive).

On to `O=C1Nc2ccc(Br)cc2/C1=N/N1C(=O)C(=O)N(C2CCCCC2)C1=S`, for which the GI50 was 3.76 µM (inactive) with A498; 5.26 µM (inactive) in the experiment with A549; 9.42 µM (inactive) in the experiment on DU-145; 4.98 µM (inactive) with EKVX; 2.16 µM (inactive) in the experiment with HL-60; 2.92 µM (inactive) with HOP-62. The GI50 is 14.4 µM (inactive) in the experiment on HOP-92; 8.38 µM (inactive) in the experiment with Hs-578T; 3.69 µM (inactive) in the experiment on K562; 3.48 µM (inactive) in the experiment on KM12; 4.07 µM (inactive) in the experiment with LOX IMVI; 4.17 µM (inactive) in the experiment on MCF7. The GI50 was 1.94 µM (inactive) in the experiment on MDA-MB-435; 7.11 µM (inactive) in the experiment on NCI-H23; 4.44 µM (inactive) in the experiment with OVCAR-4; 10 µM (inactive) with RXF 393; 3.56 µM (inactive) in the experiment on SW-620; 2.62 µM (inactive) in the experiment on T47D. In addition, the GI50 with UACC-257 was 9.55 µM (inactive).

As for `O=C(Cn1c2c(c3ccccc31)CCCC2)N1CCCC1`, the GI50 is 65 µM (inactive) in the experiment on A498; > 100 µM (inactive) in the experiment on A549; > 100 µM (inactive) with BT-549; > 100 µM (inactive) in the experiment with EKVX; 94.6 µM (inactive) with HL-60; > 100 µM (inactive) with HOP-62. Also, the GI50 was > 100 µM (inactive) in the experiment on HOP-92; 22.8 µM (inactive) in the experiment on Hs-578T; > 10 µM (inactive) in the experiment with K562; > 100 µM (inactive) with LOX IMVI; > 100 µM (inactive) in the experiment with MCF7; 77.1 µM (inactive) with MDA-MB-435. In addition, the GI50 is > 100 µM (inactive) in the experiment on NCI-H23, 27.4 µM (inactive) in the experiment with OVCAR-4, > 100 µM (inactive) in the experiment on SW-620 and > 100 µM (inactive) with UACC-257.

Turning to `CCNCCNC(=O)c1ccc(I)cc1`, the GI50 in the experiment on A498 was > 100 µM (inactive); in the experiment on A549 it was > 100 µM (inactive); in the experiment on BT-549, > 100 µM (inactive); in the experiment with EKVX it was > 100 µM (inactive); with HL-60, > 100 µM (inactive); in the experiment on HOP-92, 99.8 µM (inactive). Further, the GI50 in the experiment with Hs-578T is 81.8 µM (inactive); in the experiment with K562, > 100 µM (inactive); with KM12, > 100 µM (inactive); in the experiment with LOX IMVI, > 100 µM (inactive); with MCF7 it was > 100 µM (inactive); in the experiment on NCI-H23, > 100 µM (inactive). Besides, the GI50 in the experiment with OVCAR-4, in the experiment on RXF 393 and in the experiment with SW-620 was > 100 µM (inactive) throughout.

`Cc1nc2ccccc2c(=O)n1NC(=O)c1ccc(N)cc1`: the GI50 in the experiment on A498, in the experiment on A549, in the experiment with BT-549, in the experiment on DU-145, in the experiment on EKVX and with HL-60 was > 100 µM (inactive) in each case. Further, the GI50 in the experiment on HOP-62, in the experiment with HOP-92, in the experiment with K562, in the experiment on KM12, in the experiment on LOX IMVI and with MCF7 was > 100 µM (inactive) throughout. The GI50 in the experiment with MDA-MB-435, in the experiment with NCI-H23, in the experiment on OVCAR-4, in the experiment on RXF 393, with SW-620 and with T47D was > 100 µM (inactive) each time. In the experiment on UACC-257, the GI50 is > 100 µM (inactive).

Take `CC1(C)CC(=O)C2=C(C1)NC1=C(C2)C(=O)CC(C)(C)C1`: the GI50 in the experiment on A498, in the experiment with A549, in the experiment on BT-549, in the experiment with DU-145, in the experiment with EKVX and with HL-60 was > 100 µM (inactive) throughout. Also, the GI50 with HOP-62, in the experiment on Hs-578T, in the experiment with K562, in the experiment with KM12, with LOX IMVI and in the experiment with MCF7 was > 100 µM (inactive) throughout. Besides, the GI50 in the experiment on MDA-MB-435, with NCI-H23, in the experiment with OVCAR-4, in the experiment with RXF 393, in the experiment on SW-620 and in the experiment on UACC-257 was > 100 µM (inactive) each time.

Consider `COc1ccc(-n2nnnc2C2(Nc3ccccc3)CCN(Cc3ccccc3)CC2)cc1`, for which the GI50 was 12.8 µM (inactive) in the experiment on A498; 14.2 µM (inactive) with A549; 24.9 µM (inactive) in the experiment on DU-145; 21.6 µM (inactive) in the experiment on EKVX; 2.56 µM (inactive) in the experiment on HL-60; 16.5 µM (inactive) in the experiment with HOP-62. Moreover, the GI50 in the experiment on HOP-92 is 3.45 µM (inactive); with Hs-578T it was 4.51 µM (inactive); in the experiment on K562 it was 3.13 µM (inactive); with KM12 it was 3.77 µM (inactive); in the experiment on LOX IMVI it was 9.29 µM (inactive); with MCF7 it was 7.73 µM (inactive). Moreover, the GI50 is 3.29 µM (inactive) with MDA-MB-435; 21 µM (inactive) in the experiment on NCI-H23; 21.3 µM (inactive) in the experiment with OVCAR-4; 17.5 µM (inactive) in the experiment with RXF 393; 7.38 µM (inactive) in the experiment with SW-620; 14.7 µM (inactive) in the experiment on T47D. Besides, the GI50 in the experiment on UACC-257 was 13.8 µM (inactive).

On to `CC(C)(NC1=NCCO1)c1ccccc1`, for which the GI50 in the experiment with A498, in the experiment with A549, with DU-145, with EKVX, in the experiment with HOP-62 and in the experiment with HOP-92 was > 100 µM (inactive) in each case. The GI50 in the experiment on Hs-578T, in the experiment with KM12, in the experiment with LOX IMVI, in the experiment on MCF7, with MDA-MB-435 and with NCI-H23 was > 100 µM (inactive) each time. Also, the GI50 in the experiment on OVCAR-4, with RXF 393, in the experiment with SW-620, with T47D and with UACC-257 was > 100 µM (inactive) in each case.

In the case of `Cc1ccc(NC2=CC(=O)C(NO)c3ccccc32)cc1` (stereo not given), the GI50 in the experiment with A498 was 16.3 µM (inactive); in the experiment with A549 it was 3.09 µM (inactive); in the experiment on BT-549 it was 3.66 µM (inactive); in the experiment on DU-145, 2.56 µM (inactive); with EKVX, 2.15 µM (inactive); in the experiment with HL-60, 2 µM (inactive). Also, the GI50 with HOP-62 was 3.39 µM (inactive); with HOP-92, 2.7 µM (inactive); with KM12, 3.32 µM (inactive); in the experiment with LOX IMVI, 2.93 µM (inactive); in the experiment with MCF7 it was 2.66 µM (inactive); with MDA-MB-435, 1.89 µM (inactive). Further, the GI50 in the experiment with NCI-H23 was 1.64 µM (inactive); in the experiment with OVCAR-4, 2.99 µM (inactive); in the experiment on RXF 393, 2.62 µM (inactive); in the experiment on SW-620 it was 3.24 µM (inactive); in the experiment on T47D, 2.74 µM (inactive); in the experiment on UACC-257 it was 1.73 µM (inactive).

Turning to `COc1ccc(/N=c2/[nH]c(N)c(C(=O)c3ccc(OC)cc3)s2)cc1`, the GI50 in the experiment with A498 is 0.46 µM (active); in the experiment on A549, 0.59 µM (active); in the experiment with DU-145 it was 0.378 µM (active); in the experiment on EKVX it was 17.3 µM (inactive); in the experiment with HL-60 it was 0.119 µM (active); in the experiment with HOP-92, 25.1 µM (inactive). Further, the GI50 in the experiment on Hs-578T was 0.277 µM (active); in the experiment with K562 it was 0.0492 µM (active); in the experiment on KM12, 0.378 µM (active); with LOX IMVI, 0.596 µM (active); with MCF7, 3.23 µM (inactive); in the experiment with MDA-MB-435, 0.0306 µM (active). Besides, the GI50 is 0.508 µM (active) in the experiment on NCI-H23; 0.755 µM (active) with OVCAR-4; 0.324 µM (active) in the experiment on RXF 393; 0.273 µM (active) with SW-620; 18.7 µM (inactive) with T47D; > 100 µM (inactive) with UACC-257.
